Test results taken from patent US11247965B2 (VenatoRx Pharmaceuticals, Inc., priority 2017, dated 2022).
pEC50: −log10 of the molar value.

Assays:
[1] = In vitro cytotoxicity, MTT cell viability assay in HepG2 cells; format: cell-based; conditions: human, Cytotoxicity CC50
Method in brief: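 HepG2 cells incubated 7 days at 37 °C, 5% CO2 with compounds from 30 μM to 1.0 nM (8 half-log dilutions). Viability read as MTT formazan absorbance at 492 nm, normalised to vehicle controls; CC50 from 4-parameter non-linear regression.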

[2] = system: HBV replication in HepAD38 cells; assay: Anti-HBV activity in HepAD38 cells, extracellular HBV DNA by QPCR; format: cell-based, HBV (genotype D, serotype ayw); conditions: Hepatitis B virus, HePAD38, 168 h, read-out: Anti-HBV EC50, HepAD38 cells, extracellular HBV DNA by QPCR, 7 days of incubation
Method in brief: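 HepAD38 cells (HepG2 with tet-repressible HBV genotype D genome) seeded overnight, tetracycline removed, then treated 7 days with compounds (half-log dilutions, 30 μM–10 nM; 1:200 from DMSO). Supernatant HBV DNA quantified by QPCR against standard curve; % inhibition vs vehicle, EC50 by 4-parameter fit.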

Row | Compound | CC50 at 7 days [1] [µM] | pEC50 [2]
1 | Cc1cc(NC(=O)c2ccc(F)c(C(F)(F)C(=O)N3CCC(O)(C(N)=O)CC3)c2)ccc1F [Example 212, 1-(2,2-difluoro-2-(2-fluoro-5-((4-fluoro-3-methylphenyl)carbamoyl)phenyl)acetyl)-4-hydroxypiperidine-4-carboxamide] | 5 to 30 | > 5.30
2 | Cc1cc(NC(=O)c2ccc(F)c(C(F)(F)C(=O)N3[C@@H]4CC[C@H]3COC4)c2)ccc1F [Example 213, 3-(2-((1R,5S)-3-oxa-8-azabicyclo[3.2.1]octan-8-yl)-1,1-difluoro-2-oxoethyl)-4-fluoro-N-(4-fluoro-3-methylphenyl)benzamide] | > 30 | > 5.30
3 | Cc1cc(NC(=O)c2ccc(F)c(C(F)(F)C(=O)N3[C@H](C)CNC[C@@H]3C)c2)ccc1F [Example 214, 3-(2-((2S,6R)-2,6-dimethylpiperazin-1-yl)-1,1-difluoro-2-oxoethyl)-4-fluoro-N-(4-fluoro-3-methylphenyl)benzamide] | 5 to 30 | > 5.30
4 | Cc1cc(NC(=O)c2ccc(F)c(C(F)(F)C(=O)N3[C@@H]4CCC[C@H]3[C@H](O)C4)c2)ccc1F [Example 215, 3-(1,1-difluoro-2-((1R,5S,6R)-6-hydroxy-8-azabicyclo[3.2.1]octan-8-yl)-2-oxoethyl)-4-fluoro-N-(4-fluoro-3-methylphenyl)benzamide] | 5 to 30 | > 5.30
5 | Cc1cc(NC(=O)c2ccc(F)c(C(F)(F)C(=O)N3[C@@H]4CCC[C@H]3C[C@@H](O)C4)c2)ccc1F [Example 216, 3-(1,1-difluoro-2-((1R,3r,5S)-3-hydroxy-9-azabicyclo[3.3.1]nonan-9-yl)-2-oxoethyl)-4-fluoro-N-(4-fluoro-3-methylphenyl)benzamide] | 5 to 30 | > 5.30
6 | Cc1cc(NC(=O)c2ccc(F)c(C(F)(F)C(=O)N3[C@@H]4CCC[C@H]3C[C@H](O)C4)c2)ccc1F [Example 217, 3-(1,1-difluoro-2-((1R,3s,5S)-3-hydroxy-9-azabicyclo[3.3.1]nonan-9-yl)-2-oxoethyl)-4-fluoro-N-(4-fluoro-3-methylphenyl)benzamide] | 5 to 30 | > 5.30
7 | Cc1cc(NC(=O)c2cc(C(F)(F)C(=O)N3[C@@H]4CC[C@H]3C[C@H](O)C4)c(F)cc2F)ccc1F [Example 218, 5-(1,1-difluoro-2-((1R,3s,5S)-3-hydroxy-8-azabicyclo[3.2.1]octan-8-yl)-2-oxoethyl)-2,4-difluoro-N-(4-fluoro-3-methylphenyl)benzamide] | > 30 | > 5.30
8 | Cc1cc(NC(=O)c2cc(F)cc(C(F)(F)C(=O)N3[C@@H]4CC[C@H]3C[C@H](O)C4)c2)ccc1F [Example 219, 3-(1,1-difluoro-2-((1R,3s,5S)-3-hydroxy-8-azabicyclo[3.2.1]octan-8-yl)-2-oxoethyl)-5-fluoro-N-(4-fluoro-3-methylphenyl)benzamide] | 5 to 30 | 4.52 to 5.30
9 | Cc1cc(NC(=O)c2cc(C(F)(F)C(=O)N3[C@@H]4CC[C@H]3C[C@H](O)C4)ccc2F)ccc1F [Example 220, 5-(1,1-difluoro-2-((1R,3s,5S)-3-hydroxy-8-azabicyclo[3.2.1]octan-8-yl)-2-oxoethyl)-2-fluoro-N-(4-fluoro-3-methylphenyl)benzamide] | 5 to 30 | > 5.30
10 | Cc1cc(NC(=O)c2ccc(Cl)c(C(F)(F)C(=O)N3[C@@H]4CC[C@H]3C[C@H](O)C4)c2)ccc1F [Example 221, 4-chloro-3-(1,1-difluoro-2-((1R,3s,5S)-3-hydroxy-8-azabicyclo[3.2.1]octan-8-yl)-2-oxoethyl)-N-(4-fluoro-3-methylphenyl)benzamide] | 5 to 30 | > 5.30
11 | Cc1cc(NC(=O)c2ccc(F)c(C(F)(F)C(=O)N3CCC(O)(CO)CC3)c2)cc(F)n1 [Example 222, 3-(1,1-difluoro-2-(4-hydroxy-4-(hydroxymethyl)piperidin-1-yl)-2-oxoethyl)-4-fluoro-N-(2-fluoro-6-methylpyridin-4-yl)benzamide] | > 30 | 4.52 to 5.30
12 | Cc1cc(NC(=O)c2ccc(F)c(C(F)(F)C(=O)N3[C@@H]4CC[C@H]3C[C@H](O)C4)c2)cc(F)n1 [Example 223, 3-(1,1-difluoro-2-((1R,3s,5S)-3-hydroxy-8-azabicyclo[3.2.1]octan-8-yl)-2-oxoethyl)-4-fluoro-N-(2-fluoro-6-methylpyridin-4-yl)benzamide] | < 5 | > 5.30
13 | Cc1cc(NC(=O)c2ccc(F)c(C(F)(F)C(=O)N3[C@@H]4CC[C@H]3C[C@@H](O)C4)c2)cc(F)n1 [Example 224, 3-(1,1-difluoro-2-((1R,3r,5S)-3-hydroxy-8-azabicyclo[3.2.1]octan-8-yl)-2-oxoethyl)-4-fluoro-N-(2-fluoro-6-methylpyridin-4-yl)benzamide] | < 5 | > 5.30
14 | Cc1cc(NC(=O)c2ccc(F)c(C(F)(F)C(=O)N3[C@@H]4CC[C@H]3C[C@@H](NC(=O)OC(C)(C)C)C4)c2)ccc1F [Example 225, tert-butyl ((1R,3r,5S)-8-(2,2-difluoro-2-(2-fluoro-5-((4-fluoro-3-methylphenyl)carbamoyl)phenyl)acetyl)-8-azabicyclo[3.2.1]octan-3-yl)carbamate] | 5 to 30 | > 5.30
15 | Cc1cc(NC(=O)c2ccc(F)c(C(F)(F)C(=O)N3[C@@H]4CC[C@H]3C[C@@H](N)C4)c2)ccc1F [Example 226, 3-(2-((1R,3r,5S)-3-amino-8-azabicyclo[3.2.1]octan-8-yl)-1,1-difluoro-2-oxoethyl)-4-fluoro-N-(4-fluoro-3-methylphenyl)benzamide] | 5 to 30 | > 5.30
16 | CC(=O)N[C@@H]1C[C@H]2CC[C@@H](C1)N2C(=O)C(F)(F)c1cc(C(=O)Nc2ccc(F)c(C)c2)ccc1F [Example 227, 3-(2-((1R,3s,5S)-3-acetamido-8-azabicyclo[3.2.1]octan-8-yl)-1,1-difluoro-2-oxoethyl)-4-fluoro-N-(4-fluoro-3-methylphenyl)benzamide] | 5 to 30 | > 5.30
17 | Cc1cc(NC(=O)c2ccc(F)c(C(F)(F)C(=O)N3[C@@H]4CC[C@H]3C[C@H](N)C4)c2)ccc1F [Example 228, 3-(2-((1R,3s,5S)-3-amino-8-azabicyclo[3.2.1]octan-8-yl)-1,1-difluoro-2-oxoethyl)-4-fluoro-N-(4-fluoro-3-methylphenyl)benzamide] | 5 to 30 | > 5.30
18 | Cc1cc(NC(=O)c2ccc(F)c(C(F)(F)C(=O)N3CCC(NC(=O)OC(C)(C)C)CC3)c2)ccc1F [Example 229, tert-butyl (1-(2,2-difluoro-2-(2-fluoro-5-((4-fluoro-3-methylphenyl)carbamoyl)phenyl)acetyl)piperidin-4-yl)carbamate] | 5 to 30 | > 5.30
19 | Cc1cc(NC(=O)c2ccc(F)c(C(F)(F)C(=O)N3CCC(N)CC3)c2)ccc1F [Example 230, 3-(2-(4-aminopiperidin-1-yl)-1,1-difluoro-2-oxoethyl)-4-fluoro-N-(4-fluoro-3-methylphenyl)benzamide] | 5 to 30 | > 5.30
20 | Cc1cc(NC(=O)c2ccc(F)c(C(F)(F)C(=O)N3CCC(NS(C)(=O)=O)CC3)c2)ccc1F [Example 231, 3-(1,1-difluoro-2-(4-(methylsulfonamido)piperidin-1-yl)-2-oxoethyl)-4-fluoro-N-(4-fluoro-3-methylphenyl)benzamide] | 5 to 30 | > 5.30
21 | Cc1cc(NC(=O)c2ccc(F)c(C(F)(F)C(=O)N3CCC(NC(=O)CC4CCOCC4)CC3)c2)ccc1F [Example 232, 3-(1,1-difluoro-2-oxo-2-(4-(2-(tetrahydro-2H-pyran-4-yl)acetamido)piperidin-1-yl)ethyl)-4-fluoro-N-(4-fluoro-3-methylphenyl)benzamide] | 5 to 30 | > 5.30
22 | Cc1cc(NC(=O)c2ccc(F)c(C(F)(F)C(=O)N3CCC(NC(=O)C4CCNC(=O)C4)CC3)c2)ccc1F (stereo not shown) [Example 233, N-(1-(2,2-difluoro-2-(2-fluoro-5-((4-fluoro-3-methylphenyl)carbamoyl)phenyl)acetyl)piperidin-4-yl)-2-oxopiperidine-4-carboxamide] | 5 to 30 | > 5.30
23 | Cc1cc(NC(=O)c2ccc(F)c(C(F)(F)C(=O)N3CC[C@H](N)C3)c2)ccc1F [Example 234, (S)-3-(2-(3-aminopyrrolidin-1-yl)-1,1-difluoro-2-oxoethyl)-4-fluoro-N-(4-fluoro-3-methylphenyl)benzamide] | > 30 | 4.52 to 5.30
24 | Cc1cc(NC(=O)c2ccc(F)c(C(F)(F)C(=O)NC3CCC(C(=O)O)CC3)c2)ccc1F (stereo not shown) [Example 235, (1r,4r)-4-(2,2-difluoro-2-(2-fluoro-5-((4-fluoro-3-methylphenyl)carbamoyl)phenyl)acetamido)cyclohexane-1-carboxylic acid] | > 30 | 4.52 to 5.30
25 | Cc1cc(NC(=O)c2ccc(F)c(C(F)(F)C(=O)NC3(C#N)CC3)c2)ccc1F [Example 236, 3-(2-((1-cyanocyclopropyl)amino)-1,1-difluoro-2-oxoethyl)-4-fluoro-N-(4-fluoro-3-methylphenyl)benzamide] | > 30 | 4.52 to 5.30
26 | Cc1cc(NC(=O)c2ccc(F)c(C(F)(F)C(=O)N3CCOC[C@H]3C(=O)O)c2)ccc1F [Example 237, (S)-4-(2,2-difluoro-2-(2-fluoro-5-((4-fluoro-3-methylphenyl)carbamoyl)phenyl)acetyl)morpholine-3-carboxylic acid] | > 30 | 4.52 to 5.30
